# From US7196105B2, “Treatment of human multiple myeloma by curcumin” (Research Development Foundation, priority 2002, dated 2007)
# Legend:
# IκBα phosphorylation = test: Western blot for phosphorylated IκBα in U266 cells; type: cell-based, human; conditions: curcumin 50 μM, time course
# Experimental: FIG. 3A: Level of phosphorylated IκBα determined by Western blotting. FIG. 3B: Immunoprecipitated IκB kinase and kinase assay of IκB kinase activity (upper panel) or Western blotting for the analysis of total IKKα and IKKβ proteins in cytoplasmic extracts (lower panel). FIG. 3C: IκB kinase was immunoprecipitated and kinase assay was performed in the absence or presence of the indicated concentrations of curcumin (upper panel). Lower panel indicates the amount of GST-IκBα protein stained with Coomassie Blue in each well in the same dried gel. Thirty to fifty micrograms of cytoplasmic protein extracts prepared as described (Chaturvedi et al., 2000) were resolved on 10% SDS-PAGE gel. After electrophoresis, the proteins were electrotransferred to a nitrocellulose membrane, blocked with 5% nonfat milk, and probed with antibodies against either IkBa, phospho-IkBa, Bcl-2, Bcl-xL, or cyclin D1 (1:3000) for 1 h. Thereafter, the blot was washed, exposed to HRP-conjugated secondary antibodies for 1 h, and finally detected by chemiluminescence (ECL, Amersham Pharmacia Biotech., Arlington Heights, Ill.).
# IκB kinase [1] = biological target: T1, IκB kinase (Homo sapiens, UniProt O14920+O15111); test: IκB kinase assay on IKK immunoprecipitated from curcumin-treated U266 cells; type: cell-based; conditions: curcumin 50 μM, time course, GST-IκBα substrate
# T1 construct: 200 μg cytoplasmic extracts were immunoprecipitated with 1 μg of anti-IKKa and IKKb antibodies each; endogenous in cells; host or cells: U266 human multiple myeloma cells (cytoplasmic extract, immunoprecipitate on protein A/G-Sepharose)
# T1 sequence (O15111 whole entry): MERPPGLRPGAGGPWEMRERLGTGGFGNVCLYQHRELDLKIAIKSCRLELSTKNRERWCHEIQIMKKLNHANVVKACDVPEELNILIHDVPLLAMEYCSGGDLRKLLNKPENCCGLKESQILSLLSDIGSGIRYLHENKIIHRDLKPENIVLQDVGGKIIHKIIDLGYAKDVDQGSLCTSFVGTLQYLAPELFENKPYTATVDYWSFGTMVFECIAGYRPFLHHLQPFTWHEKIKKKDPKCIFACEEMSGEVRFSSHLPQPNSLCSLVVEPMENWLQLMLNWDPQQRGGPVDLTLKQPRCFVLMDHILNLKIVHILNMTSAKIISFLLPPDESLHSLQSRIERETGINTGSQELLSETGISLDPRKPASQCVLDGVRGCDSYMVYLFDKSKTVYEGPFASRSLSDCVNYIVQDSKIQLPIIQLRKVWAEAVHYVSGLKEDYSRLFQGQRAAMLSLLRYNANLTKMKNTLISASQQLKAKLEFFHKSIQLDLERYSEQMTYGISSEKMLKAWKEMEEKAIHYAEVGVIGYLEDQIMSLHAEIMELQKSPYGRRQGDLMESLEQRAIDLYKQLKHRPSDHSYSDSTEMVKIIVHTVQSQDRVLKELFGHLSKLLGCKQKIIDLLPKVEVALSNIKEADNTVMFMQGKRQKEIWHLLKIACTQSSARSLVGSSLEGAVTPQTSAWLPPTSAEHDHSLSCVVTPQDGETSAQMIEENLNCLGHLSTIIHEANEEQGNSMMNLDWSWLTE
# T1 sequence (O14920 whole entry): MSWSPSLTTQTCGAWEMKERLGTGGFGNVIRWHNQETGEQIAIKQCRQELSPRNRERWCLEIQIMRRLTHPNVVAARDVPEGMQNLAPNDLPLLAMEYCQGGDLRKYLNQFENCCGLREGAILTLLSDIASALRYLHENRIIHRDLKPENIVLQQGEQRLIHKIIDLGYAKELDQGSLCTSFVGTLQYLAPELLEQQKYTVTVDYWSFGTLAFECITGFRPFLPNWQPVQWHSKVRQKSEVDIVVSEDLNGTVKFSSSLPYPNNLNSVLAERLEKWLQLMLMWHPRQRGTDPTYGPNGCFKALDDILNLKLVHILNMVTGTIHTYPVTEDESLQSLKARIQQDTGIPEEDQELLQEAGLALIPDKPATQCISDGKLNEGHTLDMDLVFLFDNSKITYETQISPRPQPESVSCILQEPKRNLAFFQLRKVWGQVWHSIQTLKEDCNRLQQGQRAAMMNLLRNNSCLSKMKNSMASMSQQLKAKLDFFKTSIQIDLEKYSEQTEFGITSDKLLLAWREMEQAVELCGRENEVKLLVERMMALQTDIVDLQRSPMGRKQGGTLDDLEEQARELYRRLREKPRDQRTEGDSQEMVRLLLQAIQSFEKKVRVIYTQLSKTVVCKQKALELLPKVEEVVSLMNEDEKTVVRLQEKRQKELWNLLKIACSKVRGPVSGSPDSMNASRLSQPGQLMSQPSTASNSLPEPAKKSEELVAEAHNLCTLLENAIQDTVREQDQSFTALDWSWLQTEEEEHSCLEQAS
# T1 sequence (Q9Y6K9 whole entry partner): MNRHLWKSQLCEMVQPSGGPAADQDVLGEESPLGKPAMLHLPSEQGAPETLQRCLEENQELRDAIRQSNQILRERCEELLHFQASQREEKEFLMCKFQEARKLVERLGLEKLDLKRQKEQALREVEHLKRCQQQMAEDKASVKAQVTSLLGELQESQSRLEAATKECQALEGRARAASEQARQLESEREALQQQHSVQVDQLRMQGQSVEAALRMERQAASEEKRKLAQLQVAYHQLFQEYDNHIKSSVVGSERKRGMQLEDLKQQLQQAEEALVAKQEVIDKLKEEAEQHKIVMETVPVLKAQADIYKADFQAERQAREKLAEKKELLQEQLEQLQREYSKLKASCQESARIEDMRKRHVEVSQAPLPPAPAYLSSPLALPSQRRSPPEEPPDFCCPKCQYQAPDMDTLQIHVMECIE
# Experimental: (§1) Five million U266 cells/2.5 ml were treated with curcumin (50 μM) for the indicated times and cytoplasmic extracts were prepared. FIG. 3A: Level of phosphorylated IκBα determined by Western blotting. FIG. 3B: Immunoprecipitated IκB kinase and kinase assay of IκB kinase activity (upper panel) or Western blotting for the analysis of total IKKα and IKKβ proteins in cytoplasmic extracts (lower panel). FIG. 3C: IκB kinase was immunoprecipitated and kinase assay was performed in the absence or presence of the indicated concentrations of curcumin (upper panel). Lower panel indicates the amount of GST-IκBα protein stained with Coomassie Blue in each well in the same dried gel.
# (§2) The IkB kinase assay was performed with a modified method as described earlier (Manna et al., 2000). Briefly, 200 μg cytoplasmic extracts were immunoprecipitated with 1 μg of anti-IKKa and IKKb antibodies each, and the immune complexes so formed were precipitated with 0.01 ml of protein A/G-Sepharose beads for 2 hour. The beads were washed first with lysis buffer and then with kinase assay buffer (50 mM HEPES pH 7.4, 20 mM MgCl2, and 2 mM DTT). The immune complex was then assayed for kinase activity using kinase assay buffer containing […] [g-P^32]ATP, 10 μM unlabeled ATP, and 2 μg/sample glutathione S-transferase-IkBa (1–54). […] Radioactive bands of the dried gel were visualized and quantitated by PhosphorImager.
# IκB kinase [2] = biological target: T1, IκB kinase; test: In vitro kinase assay: IKK immunoprecipitated from untreated U266 cells, then treated with curcumin; type: biochemical; conditions: curcumin 30 min, GST-IκBα substrate
# Experimental: as §1
# as §2, with “PhosphorImager. […]” for “PhosphorImager.”
# IκBα = test: Western blot for NF-κB-regulated gene product IκBα in U266 cells; type: cell-based, human; conditions: curcumin 50 μM, time course
# Experimental: Sixty micrograms of cytoplasmic extracts were resolved on 10% SDS-PAGE gel, electrotransferred on a nitrocellulose membrane, and probed for the following: IκBα (FIG. 4A); Bcl-2 (FIG. 4B); Bcl-xL (FIG. 4C) and cyclin D1 (FIG. 4D). The same blots were stripped and reprobed with anti-β-actin antibody to show equal protein loading (lower panel in each figure). FIG. 4E: […] U266, MM.1 or RPMI 8226 cells (1×10^7) were treated with curcumin ([…]) in 5 ml of medium for the indicated times. Supernatants were harvested and concentrated approximately 20×, and IL-6 was quantitated by an IL-6 ELISA kit. Values shown were normalized to 1 ml of un-concentrated supernatants. Thirty to fifty micrograms of cytoplasmic protein extracts prepared as described (Chaturvedi et al., 2000) were resolved on 10% SDS-PAGE gel. After electrophoresis, the proteins were electrotransferred to a nitrocellulose membrane, blocked with 5% nonfat milk, and probed with antibodies against either IkBa, phospho-IkBa, Bcl-2, Bcl-xL, or cyclin D1 (1:3000) for 1 h. Thereafter, the blot was washed, exposed to HRP-conjugated secondary antibodies for 1 h, and finally detected by chemiluminescence (ECL, Amersham Pharmacia Biotech., Arlington Heights, Ill.).
# IL-6 = IL-6 ELISA of culture supernatants; type: cell-based, human; conditions: U266 cells, curcumin (legend b20: 10 mM)
# Experimental: Sixty micrograms of cytoplasmic extracts were resolved on 10% SDS-PAGE gel, electrotransferred on a nitrocellulose membrane, and probed for the following: IκBα (FIG. 4A); Bcl-2 (FIG. 4B); Bcl-xL (FIG. 4C) and cyclin D1 (FIG. 4D). The same blots were stripped and reprobed with anti-β-actin antibody to show equal protein loading (lower panel in each figure). FIG. 4E: […] U266, MM.1 or RPMI 8226 cells (1×10^7) were treated with curcumin ([…]) in 5 ml of medium for the indicated times. Supernatants were harvested and concentrated approximately 20×, and IL-6 was quantitated by an IL-6 ELISA kit. Values shown were normalized to 1 ml of un-concentrated supernatants. […] One hundred microliter aliquots were removed, and IL-6 contents were determined by an ELISA kit (Biosource International).
# [3] = system: CD138+ cells from multiple myeloma patients; test: Viability of bone marrow CD138+ cells from multiple myeloma patients (MTT or trypan blue); type: cell-based, human; conditions: 24 h
# Experimental: Briefly, cells (5000/well) were incubated in triplicate in a 96-well plate in the presence or absence of indicated test samples in a final volume of 0.1 ml for 24 h at 37° C. Thereafter, 0.025 ml of MTT solution (5 mg/ml in PBS) was added to each well. After a 2 h incubation at 37 ° C., 0.1 ml of extraction buffer (20% SDS, 50% dimethylformamide) was added. Incubation was continued for overnight at 37 ° C., and then the OD at 590 nm was measured using a 96-well multiscanner autoreader (Dynatech MR 5000), with extraction buffer as blank. Percent cell viability=(OD of the experiment samples/OD of the control)×100.
compound,measurement,setting,value
"COc1cc(/C=C/C(=O)CC(=O)/C=C/c2ccc(O)c(OC)c2)ccc1O [curcumin, diferuloylmethane]",phosphorylated IκBα content,IκBα phosphorylation,decreased rapidly
same,IκB kinase activity of IKK immunoprecipitated from treated cells,IκB kinase [1],decreased in kinase activity
same,direct inhibition of IκB kinase activity,IκB kinase [2],inhibited IκB kinase activity directly in a dose-dependent manner
same,IκBα protein level,IκBα,only a partial decline
same,IL-6 production,IL-6,inhibited the production of IL-6
same,cell survival,"[3]; patient #20, indicated concentrations, MTT",much more effective in inhibiting the survival of multiple myeloma cells than dexamethasone
same,cell survival,"[3]; patients #7, #9 and #10, different concentrations",decreased cell survival in a dose-dependent manner
